These results are taken from ChEMBL document CHEMBL1921749, “5-Lipoxygenase-activating protein (FLAP) inhibitors. Part 4: development of 3-[3-tert-butylsulfanyl-1-[4-(6-ethoxypyridin-3-yl)benzyl]-5-(5-methylpyridin-2-ylmethoxy)-1H-indol-2-yl]-2,2-dimethylpropionic acid (AM803), a potent, oral, once daily FLAP inhibitor” (J Med Chem, 2011).

Some results are limits rather than exact numbers.

As usually defined, the IC50 is the concentration at which inhibition is half-maximal. The term clearance denotes the volume of plasma or blood freed of the substance per unit of time. By half-life is commonly meant how long it takes for the measured level to halve. Broadly, the Vd is the apparent volume that relates the amount in the body to the concentration in plasma or blood. What is called bioavailability is the share of a dose that reaches the circulation, judged against a reference dose that is usually intravenous.

The target of data set [1] is T1, Arachidonate 5-lipoxygenase-activating protein (Rattus norvegicus, UniProt P20291).
T1 sequence (P20291 whole entry): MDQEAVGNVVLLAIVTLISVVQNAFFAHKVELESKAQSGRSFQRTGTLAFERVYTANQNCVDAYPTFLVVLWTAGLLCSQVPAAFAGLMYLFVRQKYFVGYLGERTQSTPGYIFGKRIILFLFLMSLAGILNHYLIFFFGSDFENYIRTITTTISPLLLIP
Put plainly: Inhibition of FLAP in rat whole blood assessed as inhibition of calcium ionophore A23187-induced LTB4 production preincubated for 4 hrs by ELISA. Format: tissue-based. (In general: An ELISA detects its analyte on a solid surface through an enzyme-linked reagent.)

Data set [2] can be described thus: Clearance in Beagle dog at 2 mg/kg, iv. It is filed as ADME, organism-based, Canis lupus familiaris. Set-up: dose 2 mg/kg, route intravenous. To be noted: in vivo.
Data set [3] concerns the target T2, Cytochrome P450 3A4 (Homo sapiens, UniProt P08684). Put plainly: Inhibition of human CYP3A4. It is filed as ADME.
Data set [4] in a line: Half life in Beagle dog at 2 mg/kg, iv. It is filed as ADME, organism-based, Canis lupus familiaris. On the set-up: dose 2 mg/kg, route intravenous. To be noted: in vivo.
In data set [5] the target is T3, Arachidonate 5-lipoxygenase-activating protein (Homo sapiens, UniProt P20292).
T3 sequence (P20292 whole entry): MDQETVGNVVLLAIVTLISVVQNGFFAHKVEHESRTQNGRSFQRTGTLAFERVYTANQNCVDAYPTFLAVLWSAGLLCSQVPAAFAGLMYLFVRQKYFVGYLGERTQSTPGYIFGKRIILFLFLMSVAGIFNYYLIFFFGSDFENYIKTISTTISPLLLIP
Briefly: Inhibition of FLAP in human whole blood assessed as inhibition of calcium ionophore A23187-induced LTB4 production preincubated for 15 mins by ELISA.

Data set [6] addresses Prostaglandin G/H synthase 1 (Homo sapiens, UniProt P23219). Briefly: Inhibition of COX1-mediated TXB2 production in human whole blood after 30 mins by competitive enzyme immunoassay.
The target in data set [7] is T4, Leukotriene C4 synthase (Homo sapiens, UniProt Q16873).
T4 sequence (Q16873 whole entry): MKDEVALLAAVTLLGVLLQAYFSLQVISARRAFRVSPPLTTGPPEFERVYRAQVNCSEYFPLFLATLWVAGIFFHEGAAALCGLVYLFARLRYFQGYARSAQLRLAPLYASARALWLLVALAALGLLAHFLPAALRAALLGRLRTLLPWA
Briefly: Inhibition of LTC4 synthase.

Data set [8] can be described thus: Volume of distribution in Beagle dog at 2 mg/kg, iv. It is filed as ADME, organism-based, Canis lupus familiaris. On the set-up: dose 2 mg/kg, route intravenous. To be noted: in vivo.
Data set [9] addresses T3, Arachidonate 5-lipoxygenase-activating protein. Put plainly: Inhibition of FLAP in human peripheral leukocytes assessed as inhibition of calcium ionophore A23187-induced LTB4 production after 3 hr by ELISA in presence of 0.5% human serum albumin. It is filed as cell-based.
Data set [10] relates to Rattus norvegicus. Briefly: Antiinflammatory activity in rat assessed as inhibition of calcium ionophore A23187-induced CysLT production in bronchoalveolar lavage fluid at 3 mg/kg, po administered 4 hrs prior to A23187 challenge. Format: functional, Lung. On the set-up: scale not given: the % may be the effect or the level left.
In data set [11] the test system is Rattus norvegicus. Briefly: Antiinflammatory activity in rat assessed as inhibition of calcium ionophore A23187-induced LTB4 production in bronchoalveolar lavage fluid at 3 mg/kg, po administered 16 hrs prior to A23187 challenge. Format: functional, Lung. Set-up: scale not given: the % may be the effect or the level left.
The target in data set [12] is T3, Arachidonate 5-lipoxygenase-activating protein. Put plainly: Inhibition of FLAP in human peripheral leukocytes assessed as inhibition of calcium ionophore A23187-induced LTB4 production after 10 mins by ELISA. Format: cell-based.
For data set [13] the target is unchanged. Briefly: Inhibition of FLAP in human peripheral leukocytes assessed as inhibition of calcium ionophore A23187-induced LTB4 production after 5 mins by ELISA in absence of human serum albumin. It is filed as cell-based.
Data set [14] shares this target. Put plainly: Inhibition of FLAP in human peripheral leukocytes assessed as inhibition of calcium ionophore A23187-induced LTB4 production after 1 hr by ELISA in absence of human serum albumin. It is filed as cell-based.
The nature of data set [15]: Oral bioavailability in Beagle dog at 5 mg/kg. Format: ADME, organism-based, Canis lupus familiaris. To be noted: in vivo.
For data set [16], the target named is T3, Arachidonate 5-lipoxygenase-activating protein. Briefly: Inhibition of FLAP in human peripheral leukocytes assessed as inhibition of calcium ionophore A23187-induced LTB4 production after 10 mins by ELISA in presence of 0.5% human serum albumin. Format: cell-based.
Data set [17] has as its target T5, Cytochrome P450 1A2 (Homo sapiens, UniProt P05177).
T5 sequence (P05177 whole entry): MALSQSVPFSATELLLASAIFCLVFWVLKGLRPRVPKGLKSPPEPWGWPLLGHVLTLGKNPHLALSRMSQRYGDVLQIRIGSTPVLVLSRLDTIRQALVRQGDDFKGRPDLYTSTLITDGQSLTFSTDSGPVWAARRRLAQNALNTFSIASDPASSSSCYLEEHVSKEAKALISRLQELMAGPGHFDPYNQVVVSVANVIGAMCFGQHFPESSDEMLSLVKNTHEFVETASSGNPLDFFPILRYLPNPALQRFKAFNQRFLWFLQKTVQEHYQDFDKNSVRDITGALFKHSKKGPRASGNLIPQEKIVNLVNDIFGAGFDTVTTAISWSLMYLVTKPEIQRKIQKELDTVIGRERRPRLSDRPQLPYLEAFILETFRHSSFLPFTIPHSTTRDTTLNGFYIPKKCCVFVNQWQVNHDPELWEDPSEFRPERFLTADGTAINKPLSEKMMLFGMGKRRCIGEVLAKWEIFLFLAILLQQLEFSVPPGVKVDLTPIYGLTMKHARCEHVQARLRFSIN
Put plainly: Inhibition of human CYP1A2. It is filed as ADME.

Data set [18] deals with Cytochrome P450 2D6 (Homo sapiens, UniProt P10635). Briefly: Inhibition of human CYP2D6. Format: ADME.
Cytochrome P450 2D6, sequence (P10635 whole entry): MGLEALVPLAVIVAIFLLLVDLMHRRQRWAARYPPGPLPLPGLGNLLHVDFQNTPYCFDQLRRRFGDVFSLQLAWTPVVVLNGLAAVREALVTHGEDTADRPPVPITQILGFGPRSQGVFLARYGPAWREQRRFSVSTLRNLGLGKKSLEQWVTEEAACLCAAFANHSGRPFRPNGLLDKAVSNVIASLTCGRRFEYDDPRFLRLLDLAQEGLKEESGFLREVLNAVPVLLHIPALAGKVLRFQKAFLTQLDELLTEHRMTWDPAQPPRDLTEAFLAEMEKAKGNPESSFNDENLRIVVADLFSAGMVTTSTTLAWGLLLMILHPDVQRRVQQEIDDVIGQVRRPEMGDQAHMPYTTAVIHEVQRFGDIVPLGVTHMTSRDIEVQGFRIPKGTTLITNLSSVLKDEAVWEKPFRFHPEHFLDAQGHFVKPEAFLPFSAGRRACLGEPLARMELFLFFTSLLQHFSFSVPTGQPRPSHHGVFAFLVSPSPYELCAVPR
Data set [19] relates to Rattus norvegicus. Briefly: Antiinflammatory activity in rat assessed as inhibition of calcium ionophore A23187-induced CysLT production in bronchoalveolar lavage fluid at 3 mg/kg, po administered 16 hrs prior to A23187 challenge. Format: functional, Lung. Set-up: scale not given: the % may be the effect or the level left.
The target of data set [20] is T2, Cytochrome P450 3A4. Briefly: Time-dependent inhibition of CYP3A4 at 10 uM. It is filed as ADME.
Data set [21] addresses T1, Arachidonate 5-lipoxygenase-activating protein. Briefly: Inhibition of FLAP in rat whole blood assessed as inhibition of calcium ionophore A23187-induced LTB4 production preincubated for 15 mins by ELISA. It is filed as tissue-based.
Data set [22] addresses Cytochrome P450 2C9 (Homo sapiens, UniProt P11712). Put plainly: Inhibition of human CYP2C9. Format: ADME.
Data set [23] can be described thus: Plasma concentration in rat at 3 mg/kg, po after 16 hrs. On the set-up: dose 3 mg/kg, route oral. It is filed as ADME, organism-based.

T2 sequence (P08684 whole entry): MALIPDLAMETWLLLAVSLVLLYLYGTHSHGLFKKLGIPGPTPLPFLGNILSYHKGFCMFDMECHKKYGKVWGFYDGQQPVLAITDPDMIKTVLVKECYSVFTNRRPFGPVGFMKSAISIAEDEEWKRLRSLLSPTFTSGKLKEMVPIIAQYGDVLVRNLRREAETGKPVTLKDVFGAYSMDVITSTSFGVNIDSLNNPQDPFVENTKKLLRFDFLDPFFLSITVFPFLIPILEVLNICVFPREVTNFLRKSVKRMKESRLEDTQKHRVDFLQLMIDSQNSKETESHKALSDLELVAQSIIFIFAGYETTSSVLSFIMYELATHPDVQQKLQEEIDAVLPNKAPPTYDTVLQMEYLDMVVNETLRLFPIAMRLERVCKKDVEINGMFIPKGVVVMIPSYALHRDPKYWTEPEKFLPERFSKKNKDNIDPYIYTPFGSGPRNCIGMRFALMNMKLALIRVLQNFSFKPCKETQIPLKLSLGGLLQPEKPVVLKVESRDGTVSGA
Cytochrome P450 2C9, sequence (P11712 whole entry): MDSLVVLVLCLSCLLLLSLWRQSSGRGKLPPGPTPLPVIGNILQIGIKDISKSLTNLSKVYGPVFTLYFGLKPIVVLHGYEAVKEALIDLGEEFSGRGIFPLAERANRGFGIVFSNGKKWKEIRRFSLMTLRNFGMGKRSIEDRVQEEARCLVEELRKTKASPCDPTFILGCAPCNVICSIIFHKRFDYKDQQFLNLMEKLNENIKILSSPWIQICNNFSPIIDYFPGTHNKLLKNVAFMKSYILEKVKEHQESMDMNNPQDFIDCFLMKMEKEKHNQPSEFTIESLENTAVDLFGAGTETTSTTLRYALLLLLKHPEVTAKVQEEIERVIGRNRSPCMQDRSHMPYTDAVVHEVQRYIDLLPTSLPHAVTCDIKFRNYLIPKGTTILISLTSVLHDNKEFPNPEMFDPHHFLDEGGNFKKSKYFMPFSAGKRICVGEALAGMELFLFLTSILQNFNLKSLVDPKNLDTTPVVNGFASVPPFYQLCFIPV
Prostaglandin G/H synthase 1, sequence (P23219 whole entry): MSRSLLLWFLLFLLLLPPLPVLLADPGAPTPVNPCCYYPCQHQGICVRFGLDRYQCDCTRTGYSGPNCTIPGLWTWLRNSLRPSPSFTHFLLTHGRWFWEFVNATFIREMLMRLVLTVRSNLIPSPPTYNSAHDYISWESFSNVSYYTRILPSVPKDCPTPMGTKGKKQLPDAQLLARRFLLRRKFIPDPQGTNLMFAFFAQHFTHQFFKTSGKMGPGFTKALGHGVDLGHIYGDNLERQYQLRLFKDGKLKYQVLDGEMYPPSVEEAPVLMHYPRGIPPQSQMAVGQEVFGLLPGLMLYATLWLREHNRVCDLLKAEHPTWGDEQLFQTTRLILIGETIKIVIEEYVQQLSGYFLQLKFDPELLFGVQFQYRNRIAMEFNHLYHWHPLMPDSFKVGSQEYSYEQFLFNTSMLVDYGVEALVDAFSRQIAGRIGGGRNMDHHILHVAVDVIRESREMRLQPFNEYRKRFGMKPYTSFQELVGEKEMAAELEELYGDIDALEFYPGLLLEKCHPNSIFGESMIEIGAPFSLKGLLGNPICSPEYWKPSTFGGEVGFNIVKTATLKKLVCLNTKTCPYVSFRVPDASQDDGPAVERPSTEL

Take `CCOc1ccc(-c2ccc(Cn3c(CC(C)(C)C(=O)O)c(SC(C)(C)C)c4cc(OCc5ccc(C)cn5)ccc43)cc2)cn1` [FIBOFLAPON]: the IC50 in [1] is 16 nM; in data set [3] it was > 50000 nM; in data set [5], 506 nM; in [6], 58000 nM; in data set [7], 36000 nM; in [9], 4 nM. For the same compound, the IC50 is 0.7 nM in data set [12]; 1 nM in data set [13]; 1 nM in data set [14]; 26 nM in data set [16]; > 40000 nM in data set [17]; > 40000 nM in [18]. In addition, the IC50 in data set [21] was 239 nM; in [22], > 50000 nM. Besides, the clearance in [2] worked out at 0.6 mL/min/kg. For the same compound, the half-life in data set [4] is 13 h. This compound came in with a distribution volume (Vd) in [8] of 0.2 L/kg. Also, the figures for the Activity in data set [10], in data set [11] and in data set [19] were 80%, 86% and 41%, respectively. This compound also registered a bioavailability in data set [15] of 51%. Besides, the TDI result in [20] was “Not Active”. The compound further gave a concentration at 16 h in [23] of 3 nM.
